Species on record: Rattus norvegicus
Assay: DrugMatrix - Regimen: Daily Repeat
Format: toxicity, organism-based, Sprague-Dawley
Set-up: regimen Daily Repeat, gender Male, age 6-8 weeks
Details: in vivo, iv, vehicle 100 % SALINE; for ABSOLUTE BASOPHIL / ABSOLUTE EOSINOPHIL / ABSOLUTE LYMPHOCYTE / ABSOLUTE MONOCYTE / ABSOLUTE SEGMENTED NEUTROPHIL / BASOPHIL / EOSINOPHIL / ERYTHROCYTE COUNT / HEMATOCRIT / HEMOGLOBIN / LEUKOCYTE COUNT / LYMPHOCYTE / MEAN CORPUSCULAR HEMOGLOBIN / MEAN CORPUSCULAR HEMOGLOBIN CONCENTRATION / MEAN CORPUSCULAR VOLUME / MONOCYTE / NEUTROPHIL / NUCLEATED RED BLOOD CELLS / PLATELET COUNT: tissue Blood; for ALANINE AMINOTRANSFERASE / ALBUMIN / ALKALINE PHOSPHATASE / ASPARTATE AMINOTRANSFERASE / BLOOD UREA NITROGEN / CARBON DIOXIDE / CHLORIDE / CHOLESTEROL / CREATINE PHOSPHOKINASE / CREATININE / GLUCOSE / LACTATE DEHYDROGENASE / LIPASE / PHOSPHORUS / POTASSIUM / SODIUM / TOTAL BILIRUBIN / TOTAL PROTEIN / URIC ACID: tissue Plasma
[1] = 100 mg/kg, 72 h, dose level Low, time 3 day
[2] = 100 mg/kg, 120 h, dose level Low, time 5 day
[3] = 1000 mg/kg, 72 h, dose level High, time 3 day
[4] = 1000 mg/kg, 120 h, dose level High, time 5 day

OC[C@@H](O)[C@@H](O)[C@H](O)[C@H](O)CO [MANNITOL]
ABSOLUTE BASOPHIL [1]: 0 CELLS/uL
ABSOLUTE EOSINOPHIL [1]: 269 CELLS/uL
ABSOLUTE LYMPHOCYTE [1]: 11772.67 CELLS/uL
ABSOLUTE MONOCYTE [1]: 286.33 CELLS/uL
ABSOLUTE SEGMENTED NEUTROPHIL [1]: 638.67 CELLS/uL
BASOPHIL [1]: 0%
EOSINOPHIL [1]: 2%
ERYTHROCYTE COUNT [1]: 5.91 x10E6/uL
HEMATOCRIT [1]: 37.23%
HEMOGLOBIN [1]: 13.83 G/DL
LEUKOCYTE COUNT [1]: 12.97 x10E3/uL
LYMPHOCYTE [1]: 90.67%
MEAN CORPUSCULAR HEMOGLOBIN [1]: 23.43 pg
MEAN CORPUSCULAR HEMOGLOBIN CONCENTRATION [1]: 37.1 G/DL
MEAN CORPUSCULAR VOLUME [1]: 62.97 fL
MONOCYTE [1]: 2.33%
NEUTROPHIL [1]: 5%
NUCLEATED RED BLOOD CELLS [1]: 0 /100WBC
PLATELET COUNT [1]: 1250.33 x10E3/uL
ALANINE AMINOTRANSFERASE [1]: 48.67 u/L
ALBUMIN [1]: 4.13 G/DL
ALKALINE PHOSPHATASE [1]: 350 u/L
ASPARTATE AMINOTRANSFERASE [1]: 97.33 u/L
BLOOD UREA NITROGEN [1]: 16.33 mg/dL
CARBON DIOXIDE [1]: 24.67 mmol/L
CHLORIDE [1]: 104 MEQ/L
CHOLESTEROL [1]: 77.67 mg/dL
CREATINE PHOSPHOKINASE [1]: 393.67 u/L
CREATININE [1]: 0.2 mg/dL
GLUCOSE [1]: 160.33 mg/dL
LACTATE DEHYDROGENASE [1]: 480.67 u/L
LIPASE [1]: 8.67 u/L
PHOSPHORUS [1]: 13.8 mg/dL
POTASSIUM [1]: 6.9 MEQ/L
SODIUM [1]: 146.1 MEQ/L
TOTAL BILIRUBIN [1]: 0.2 mg/dL
TOTAL PROTEIN [1]: 5.93 G/DL
URIC ACID [1]: 1.7 mg/dL
ABSOLUTE BASOPHIL [2]: 0 CELLS/uL
ABSOLUTE EOSINOPHIL [2]: 0 CELLS/uL
ABSOLUTE LYMPHOCYTE [2]: 12262.33 CELLS/uL
ABSOLUTE MONOCYTE [2]: 402.33 CELLS/uL
ABSOLUTE SEGMENTED NEUTROPHIL [2]: 1202 CELLS/uL
BASOPHIL [2]: 0%
EOSINOPHIL [2]: 0%
ERYTHROCYTE COUNT [2]: 5.62 x10E6/uL
HEMATOCRIT [2]: 34.87%
HEMOGLOBIN [2]: 12.8 G/DL
LEUKOCYTE COUNT [2]: 13.87 x10E3/uL
LYMPHOCYTE [2]: 88.33%
MEAN CORPUSCULAR HEMOGLOBIN [2]: 22.77 pg
MEAN CORPUSCULAR HEMOGLOBIN CONCENTRATION [2]: 36.73 G/DL
MEAN CORPUSCULAR VOLUME [2]: 62 fL
MONOCYTE [2]: 3%
NEUTROPHIL [2]: 8.67%
NUCLEATED RED BLOOD CELLS [2]: 0 /100WBC
PLATELET COUNT [2]: 1182.33 x10E3/uL
ALANINE AMINOTRANSFERASE [2]: 73.33 u/L
ALBUMIN [2]: 4.27 G/DL
ALKALINE PHOSPHATASE [2]: 396 u/L
ASPARTATE AMINOTRANSFERASE [2]: 130.33 u/L
BLOOD UREA NITROGEN [2]: 17.67 mg/dL
CARBON DIOXIDE [2]: 21.67 mmol/L
CHLORIDE [2]: 110.67 MEQ/L
CHOLESTEROL [2]: 83 mg/dL
CREATINE PHOSPHOKINASE [2]: 1094.67 u/L
CREATININE [2]: 0.15 mg/dL
GLUCOSE [2]: 196.33 mg/dL
LACTATE DEHYDROGENASE [2]: 396.67 u/L
LIPASE [2]: 9.67 u/L
PHOSPHORUS [2]: 14.1 mg/dL
POTASSIUM [2]: 6.09 MEQ/L
SODIUM [2]: 148.6 MEQ/L
TOTAL BILIRUBIN [2]: 0.13 mg/dL
TOTAL PROTEIN [2]: 5.73 G/DL
URIC ACID [2]: 2.53 mg/dL
ABSOLUTE BASOPHIL [3]: 0 CELLS/uL
ABSOLUTE EOSINOPHIL [3]: 168 CELLS/uL
ABSOLUTE LYMPHOCYTE [3]: 12528 CELLS/uL
ABSOLUTE MONOCYTE [3]: 421 CELLS/uL
ABSOLUTE SEGMENTED NEUTROPHIL [3]: 916.33 CELLS/uL
BASOPHIL [3]: 0%
EOSINOPHIL [3]: 1.33%
ERYTHROCYTE COUNT [3]: 5.26 x10E6/uL
HEMATOCRIT [3]: 34.8%
HEMOGLOBIN [3]: 13.1 G/DL
LEUKOCYTE COUNT [3]: 14.03 x10E3/uL
LYMPHOCYTE [3]: 89%
MEAN CORPUSCULAR HEMOGLOBIN [3]: 24.9 pg
MEAN CORPUSCULAR HEMOGLOBIN CONCENTRATION [3]: 37.7 G/DL
MEAN CORPUSCULAR VOLUME [3]: 66.13 fL
MONOCYTE [3]: 3%
NEUTROPHIL [3]: 6.67%
NUCLEATED RED BLOOD CELLS [3]: 0 /100WBC
PLATELET COUNT [3]: 1218.33 x10E3/uL
ALANINE AMINOTRANSFERASE [3]: 45 u/L
ALBUMIN [3]: 4.1 G/DL
ALKALINE PHOSPHATASE [3]: 339.33 u/L
ASPARTATE AMINOTRANSFERASE [3]: 74.33 u/L
BLOOD UREA NITROGEN [3]: 14.67 mg/dL
CARBON DIOXIDE [3]: 21.67 mmol/L
CHLORIDE [3]: 105 MEQ/L
CHOLESTEROL [3]: 68.33 mg/dL
CREATINE PHOSPHOKINASE [3]: 402.67 u/L
CREATININE [3]: 0.13 mg/dL
GLUCOSE [3]: 181.67 mg/dL
LACTATE DEHYDROGENASE [3]: 239.67 u/L
LIPASE [3]: 9.33 u/L
PHOSPHORUS [3]: 14.13 mg/dL
POTASSIUM [3]: 6.11 MEQ/L
SODIUM [3]: 145 MEQ/L
TOTAL BILIRUBIN [3]: 0.23 mg/dL
TOTAL PROTEIN [3]: 5.93 G/DL
URIC ACID [3]: 1.77 mg/dL
ABSOLUTE BASOPHIL [4]: 0 CELLS/uL
ABSOLUTE EOSINOPHIL [4]: 45 CELLS/uL
ABSOLUTE LYMPHOCYTE [4]: 12203.33 CELLS/uL
ABSOLUTE MONOCYTE [4]: 139 CELLS/uL
ABSOLUTE SEGMENTED NEUTROPHIL [4]: 779.33 CELLS/uL
BASOPHIL [4]: 0%
EOSINOPHIL [4]: 0.33%
ERYTHROCYTE COUNT [4]: 5.59 x10E6/uL
HEMATOCRIT [4]: 35.07%
HEMOGLOBIN [4]: 13.4 G/DL
LEUKOCYTE COUNT [4]: 13.17 x10E3/uL
LYMPHOCYTE [4]: 92.67%
MEAN CORPUSCULAR HEMOGLOBIN [4]: 23.97 pg
MEAN CORPUSCULAR HEMOGLOBIN CONCENTRATION [4]: 38.27 G/DL
MEAN CORPUSCULAR VOLUME [4]: 62.67 fL
MONOCYTE [4]: 1%
NEUTROPHIL [4]: 6%
NUCLEATED RED BLOOD CELLS [4]: 0 /100WBC
PLATELET COUNT [4]: 1310 x10E3/uL
ALANINE AMINOTRANSFERASE [4]: 39 u/L
ALBUMIN [4]: 4.3 G/DL
ALKALINE PHOSPHATASE [4]: 331.67 u/L
ASPARTATE AMINOTRANSFERASE [4]: 64.67 u/L
BLOOD UREA NITROGEN [4]: 17.33 mg/dL
CARBON DIOXIDE [4]: 25.67 mmol/L
CHLORIDE [4]: 109.67 MEQ/L
CHOLESTEROL [4]: 67.67 mg/dL
CREATINE PHOSPHOKINASE [4]: 165.33 u/L
CREATININE [4]: 0.19 mg/dL
GLUCOSE [4]: 172.33 mg/dL
LACTATE DEHYDROGENASE [4]: 106.33 u/L
LIPASE [4]: 8.67 u/L
PHOSPHORUS [4]: 12.67 mg/dL
POTASSIUM [4]: 6.4 MEQ/L
SODIUM [4]: 148.93 MEQ/L
TOTAL BILIRUBIN [4]: 0.2 mg/dL
TOTAL PROTEIN [4]: 6.3 G/DL
URIC ACID [4]: 1.67 mg/dL

Reference: ChEMBL document CHEMBL3885881, “DrugMatrix”
